{"source": "ChEMBL document CHEMBL6103537", "about": "(J Med Chem, 2025)", "key": {"[1]": {"target": "Cereblon/Ikaros (Homo sapiens) (UniProt Q96SW2+Q13422)", "assay": "PROTAC activity at CRBN/IKZF1 in human Jurkat cells assessed as degradation of IKZF1 protein at 0.01 to 10 uM incubated for 20 hrs by Western blotting analysis", "format": "cell-based", "details": "dose 0.01-10 µM"}, "[2]": {"assay": "Stability in monkey plasma assessed as parent compound remaining measured at 5 mins by LC-MS/MS analysis", "format": "ADME, cell-free, Macaca mulatta", "details": "rhesus monkey, read-out: Stability"}, "[3]": {"target": "T1, Protein cereblon/Signal transducer and activator of transcription 6 (Homo sapiens, UniProt P42226+Q96SW2)", "assay": "PROTAC activity at STAT6/CRBN in human MV4-11 cells assessed as reduction in STAT6 level incubated for 12 hrs by Western blot analysis", "format": "cell-based"}, "[4]": {"assay": "Metabolic stability in human liver microsome assessed as parent compound remaining measured at 30 mins in presence of NADPH by LC-MS/MS analysis", "format": "ADME", "details": "liver microsomes, read-out: Stability"}, "[5]": {"target": "T2, Protein cereblon/Signal transducer and activator of transcription 2 (Homo sapiens) (UniProt Q96SW2+P52630)", "T2 sequence (P52630 whole entry, looked up)": "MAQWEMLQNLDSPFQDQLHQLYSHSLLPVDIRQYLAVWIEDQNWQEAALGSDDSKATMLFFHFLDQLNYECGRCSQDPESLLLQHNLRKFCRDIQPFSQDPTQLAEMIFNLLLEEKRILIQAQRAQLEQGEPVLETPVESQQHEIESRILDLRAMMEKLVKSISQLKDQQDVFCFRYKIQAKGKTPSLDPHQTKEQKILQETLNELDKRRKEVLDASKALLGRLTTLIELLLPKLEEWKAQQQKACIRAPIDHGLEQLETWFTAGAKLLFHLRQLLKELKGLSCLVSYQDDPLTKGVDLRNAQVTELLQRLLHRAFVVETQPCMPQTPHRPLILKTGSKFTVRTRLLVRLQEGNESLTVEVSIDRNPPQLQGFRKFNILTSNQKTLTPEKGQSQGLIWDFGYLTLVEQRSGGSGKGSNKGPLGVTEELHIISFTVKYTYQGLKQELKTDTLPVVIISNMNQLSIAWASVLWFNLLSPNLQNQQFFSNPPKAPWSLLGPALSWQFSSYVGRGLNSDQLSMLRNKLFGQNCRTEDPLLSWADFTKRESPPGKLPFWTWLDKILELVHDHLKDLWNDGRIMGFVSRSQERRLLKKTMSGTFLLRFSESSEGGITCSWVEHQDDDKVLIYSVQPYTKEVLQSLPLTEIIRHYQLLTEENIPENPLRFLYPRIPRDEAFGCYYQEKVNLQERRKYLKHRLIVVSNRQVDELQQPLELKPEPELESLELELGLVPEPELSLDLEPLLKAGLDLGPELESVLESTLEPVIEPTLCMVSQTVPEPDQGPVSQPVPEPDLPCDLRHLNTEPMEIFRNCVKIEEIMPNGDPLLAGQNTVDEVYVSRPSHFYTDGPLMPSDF", "T2 sequence (Q96SW2 whole entry, looked up)": "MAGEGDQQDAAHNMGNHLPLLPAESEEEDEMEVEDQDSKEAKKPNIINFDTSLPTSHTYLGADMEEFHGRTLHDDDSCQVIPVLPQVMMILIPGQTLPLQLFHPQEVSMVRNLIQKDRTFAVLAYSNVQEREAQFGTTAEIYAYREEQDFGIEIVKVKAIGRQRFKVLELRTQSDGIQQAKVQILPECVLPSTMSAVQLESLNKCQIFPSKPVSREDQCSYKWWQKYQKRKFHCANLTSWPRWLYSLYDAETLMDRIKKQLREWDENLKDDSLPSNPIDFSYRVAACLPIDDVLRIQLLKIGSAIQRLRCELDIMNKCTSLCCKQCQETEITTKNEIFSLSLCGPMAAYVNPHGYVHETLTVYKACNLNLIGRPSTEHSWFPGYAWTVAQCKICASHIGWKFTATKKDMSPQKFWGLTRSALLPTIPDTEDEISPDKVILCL", "assay": "PROTAC activity at STAT2/CRBN in human PBMC cells assessed as reduction in STAT2 level at 10 uM incubated for 18 hrs by Western blot analysis relative to control", "format": "cell-based"}, "[6]": {"assay": "Metabolic stability in rat liver microsome assessed as parent compound remaining measured at 30 mins in presence of NADPH by LC-MS/MS analysis", "format": "ADME", "details": "liver microsomes, read-out: Stability"}, "[7]": {"assay": "Metabolic stability in monkey liver microsome assessed as parent compound remaining measured at 15 mins in presence of NADPH by LC-MS/MS analysis", "format": "ADME, Macaca mulatta", "details": "rhesus monkey, liver microsomes, read-out: Stability"}, "[8]": {"target": "T2, Protein cereblon/Signal transducer and activator of transcription 2 (Homo sapiens)", "assay": "PROTAC activity at STAT2/CRBN in human MV4-11 cells assessed as reduction in STAT2 level at 2 uM incubated for 12 hrs by Western blot analysis relative to control", "format": "cell-based"}, "[9]": {"assay": "Stability in rat plasma assessed as parent compound remaining measured at 5 mins by LC-MS/MS analysis", "format": "ADME, cell-free", "details": "read-out: Stability"}, "[10]": {"target": "Protein cereblon/Signal transducer and activator of transcription 3 (Homo sapiens) (UniProt P40763+Q96SW2)", "sequence (P40763 2-770 limits assumed)": "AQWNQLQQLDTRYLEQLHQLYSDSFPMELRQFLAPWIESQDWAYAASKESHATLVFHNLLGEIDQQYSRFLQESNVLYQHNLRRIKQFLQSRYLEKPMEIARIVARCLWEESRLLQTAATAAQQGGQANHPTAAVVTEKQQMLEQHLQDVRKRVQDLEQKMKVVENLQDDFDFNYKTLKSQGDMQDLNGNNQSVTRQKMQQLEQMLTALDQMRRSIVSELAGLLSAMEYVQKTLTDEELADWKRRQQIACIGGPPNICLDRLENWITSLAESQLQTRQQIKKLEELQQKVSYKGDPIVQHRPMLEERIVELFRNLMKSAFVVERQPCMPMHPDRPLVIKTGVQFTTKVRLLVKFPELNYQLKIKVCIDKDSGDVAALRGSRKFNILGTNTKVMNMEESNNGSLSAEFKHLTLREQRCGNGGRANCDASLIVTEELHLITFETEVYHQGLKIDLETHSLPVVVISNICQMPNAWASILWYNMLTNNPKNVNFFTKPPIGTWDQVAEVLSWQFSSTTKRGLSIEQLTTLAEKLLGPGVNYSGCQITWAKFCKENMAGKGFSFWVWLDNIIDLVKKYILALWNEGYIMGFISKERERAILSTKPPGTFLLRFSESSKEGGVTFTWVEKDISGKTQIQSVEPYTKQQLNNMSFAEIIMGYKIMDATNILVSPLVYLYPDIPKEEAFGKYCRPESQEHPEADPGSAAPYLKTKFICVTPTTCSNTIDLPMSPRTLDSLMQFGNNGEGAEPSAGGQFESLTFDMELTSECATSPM", "sequence (Q96SW2 whole entry partner)": "as the sequence (Q96SW2 whole entry, looked up) above", "assay": "PROTAC activity at STAT3/CRBN in human L-1236 cells assessed as reduction in STAT3 level at 10 uM incubated for 24 hrs by Western blot analysis", "format": "cell-based"}, "[11]": {"assay": "Stability in human plasma assessed as parent compound remaining measured at 5 mins by LC-MS/MS analysis", "format": "ADME, cell-free", "details": "read-out: Stability"}, "[12]": {"assay": "Stability in mouse plasma assessed as parent compound remaining measured at 15 mins by LC-MS/MS analysis", "format": "ADME, cell-free", "details": "read-out: Stability"}, "[13]": {"assay": "Metabolic stability in rat liver microsome assessed as parent compound remaining measured at 15 mins in presence of NADPH by LC-MS/MS analysis", "format": "ADME", "details": "liver microsomes, read-out: Stability"}, "[14]": {"assay": "Stability in monkey plasma assessed as parent compound remaining measured at 30 mins by LC-MS/MS analysis", "format": "ADME, cell-free, Macaca mulatta", "details": "rhesus monkey, read-out: Stability"}, "[15]": {"assay": "Metabolic stability in dog liver microsome assessed as parent compound remaining measured at 15 mins in presence of NADPH by LC-MS/MS analysis", "format": "ADME, Canis lupus familiaris", "details": "liver microsomes, read-out: Stability"}, "[16]": {"target": "T1, Protein cereblon/Signal transducer and activator of transcription 6", "assay": "PROTAC activity at STAT6/CRBN in human MV4-11 cells assessed as reduction in STAT6 level at 5 uM incubated for 12 hrs by Western blot analysis relative to control", "format": "cell-based"}, "[17]": {"assay": "Stability in monkey plasma assessed as parent compound remaining measured at 60 mins by LC-MS/MS analysis", "format": "ADME, cell-free, Macaca mulatta", "details": "rhesus monkey, read-out: Stability"}, "[18]": {"assay": "Metabolic stability in monkey liver microsome assessed as parent compound remaining measured at 30 mins in presence of NADPH by LC-MS/MS analysis", "format": "ADME, Macaca mulatta", "details": "rhesus monkey, liver microsomes, read-out: Stability"}, "[19]": {"target": "Protein cereblon/Zinc finger protein Helios (Homo sapiens) (UniProt Q96SW2+Q9UKS7)", "sequence (Q96SW2 whole entry, looked up)": "as above", "sequence (Q9UKS7 whole entry, looked up)": "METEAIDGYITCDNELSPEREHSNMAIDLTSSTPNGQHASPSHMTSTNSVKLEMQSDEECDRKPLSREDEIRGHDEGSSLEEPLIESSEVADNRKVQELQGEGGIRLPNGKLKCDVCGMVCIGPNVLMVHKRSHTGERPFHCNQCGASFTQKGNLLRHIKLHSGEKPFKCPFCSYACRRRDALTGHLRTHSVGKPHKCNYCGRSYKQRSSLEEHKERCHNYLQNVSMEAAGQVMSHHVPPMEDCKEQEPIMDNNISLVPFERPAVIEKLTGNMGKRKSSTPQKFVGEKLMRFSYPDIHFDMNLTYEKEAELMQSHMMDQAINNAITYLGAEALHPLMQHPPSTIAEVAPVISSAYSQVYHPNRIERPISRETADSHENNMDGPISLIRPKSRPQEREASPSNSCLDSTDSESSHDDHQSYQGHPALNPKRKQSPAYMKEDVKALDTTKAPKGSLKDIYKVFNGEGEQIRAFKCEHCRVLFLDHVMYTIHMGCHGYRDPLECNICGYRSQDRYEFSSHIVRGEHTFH", "assay": "PROTAC activity at CRBN/IKZF2 in human Jurkat cells assessed as degradation of IKZF2 protein at 0.01 to 10 uM incubated for 20 hrs by Western blotting analysis", "format": "cell-based", "details": "dose 0.01-10 µM"}, "[20]": {"target": "Protein cereblon/Signal transducer and activator of transcription 4 (Homo sapiens) (UniProt Q96SW2+Q14765)", "sequence (Q14765 whole entry, looked up)": "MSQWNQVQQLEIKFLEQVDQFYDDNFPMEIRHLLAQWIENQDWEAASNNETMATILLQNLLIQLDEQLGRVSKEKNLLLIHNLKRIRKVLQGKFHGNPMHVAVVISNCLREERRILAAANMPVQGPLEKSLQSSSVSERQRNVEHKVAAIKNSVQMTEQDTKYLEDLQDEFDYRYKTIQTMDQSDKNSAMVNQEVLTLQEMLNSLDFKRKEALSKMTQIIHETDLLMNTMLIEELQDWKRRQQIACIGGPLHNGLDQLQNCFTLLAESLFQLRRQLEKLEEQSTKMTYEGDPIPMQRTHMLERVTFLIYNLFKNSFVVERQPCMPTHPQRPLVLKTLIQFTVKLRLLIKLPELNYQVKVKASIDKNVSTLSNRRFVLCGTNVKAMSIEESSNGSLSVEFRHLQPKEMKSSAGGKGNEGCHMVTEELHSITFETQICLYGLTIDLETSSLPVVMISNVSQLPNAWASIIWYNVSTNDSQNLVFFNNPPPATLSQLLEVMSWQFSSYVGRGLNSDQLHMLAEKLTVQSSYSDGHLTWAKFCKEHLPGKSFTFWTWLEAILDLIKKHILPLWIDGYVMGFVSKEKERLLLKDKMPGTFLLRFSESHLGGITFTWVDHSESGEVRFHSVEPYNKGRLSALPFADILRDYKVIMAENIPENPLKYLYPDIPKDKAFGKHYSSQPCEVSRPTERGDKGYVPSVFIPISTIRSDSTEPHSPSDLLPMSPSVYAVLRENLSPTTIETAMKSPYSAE", "sequence (Q96SW2 whole entry, looked up)": "as the sequence (Q96SW2 whole entry, looked up) above", "assay": "PROTAC activity at STAT4/CRBN in human PBMC cells assessed as reduction in STAT4 level at 10 uM incubated for 18 hrs by Western blot analysis relative to control", "format": "cell-based"}, "[21]": {"assay": "Stability in human plasma assessed as parent compound remaining measured at 15 mins by LC-MS/MS analysis", "format": "ADME, cell-free", "details": "read-out: Stability"}, "[22]": {"target": "T1, Protein cereblon/Signal transducer and activator of transcription 6", "assay": "PROTAC activity at STAT6/CRBN in human MV4-11 cells assessed as reduction in STAT6 level at 2 uM measured upto 1200 mins in presence of AK-068 by HiBiT bioluminescence assay", "format": "cell-based"}, "[23]": {"assay": "Stability in monkey plasma assessed as half life measured upto 60 mins by LC-MS/MS analysis", "format": "ADME, cell-free, Macaca mulatta", "details": "rhesus monkey"}, "[24]": {"target": "T1, Protein cereblon/Signal transducer and activator of transcription 6", "assay": "PROTAC activity at STAT6/CRBN in human PBMC cells assessed as reduction in STAT6 level at 10 uM incubated for 18 hrs by Western blot analysis relative to control", "format": "cell-based"}, "[25]": {"assay": "Metabolic stability in dog liver microsome assessed as parent compound remaining measured at 45 mins in presence of NADPH by LC-MS/MS analysis", "format": "ADME, Canis lupus familiaris", "details": "liver microsomes, read-out: Stability"}, "[26]": {"assay": "Stability in monkey plasma assessed as parent compound remaining measured at 15 mins by LC-MS/MS analysis", "format": "ADME, cell-free, Macaca mulatta", "details": "rhesus monkey, read-out: Stability"}, "[27]": {"assay": "Downregulation of EPB41L1 level in human PBMC cells at 5 uM incubated for 18 hrs by Western blot analysis relative to control", "format": "functional"}, "PBMC": {"tested_on": "PBMC", "assay": "Downregulation of STAT1 level in human PBMC cells at 5 uM incubated for 18 hrs by Western blot analysis relative to control", "format": "functional, cell-based"}, "[28]": {"assay": "Stability in human plasma assessed as parent compound remaining measured at 60 mins by LC-MS/MS analysis", "format": "ADME, cell-free", "details": "read-out: Stability"}, "[29]": {"assay": "Stability in dog plasma assessed as half life measured upto 60 mins by LC-MS/MS analysis", "format": "ADME, cell-free, Canis lupus familiaris"}}, "note": "Active and inactive are the calls of the source. The rule behind the calls is not given here.", "data": [{"smiles": "CC(C)(C)[C@H](NC(=O)c1cc2cc(C(F)(F)P(=O)(O)O)ccc2s1)C(=O)N1C[C@@H](OCCCCCC#Cc2cccc3c2CN(C2CCC(=O)NC2=O)C3=O)C[C@H]1C(=O)N1CCO[C@H](c2ccccc2)C1", "note": "(stereo not given in full)", "values": [{"measurement": "Activity", "setting": "[1]", "result": "Active"}, {"measurement": "remaining at 5 min", "setting": "[2]", "result": 82, "unit": "%"}, {"measurement": "DC50", "setting": "[3]", "result": 1, "unit": "nM"}, {"measurement": "remaining at 0.5 h", "setting": "[4]", "result": 92, "unit": "%"}, {"measurement": "Activity", "setting": "[5]", "result": "No effect"}, {"measurement": "remaining at 0.5 h", "setting": "[6]", "result": 96, "unit": "%"}, {"measurement": "remaining at 0.25 h", "setting": "[7]", "result": 83, "unit": "%"}, {"measurement": "Emax", "setting": "[8]", "result": "< 40", "unit": "%"}, {"measurement": "remaining at 5 min", "setting": "[9]", "result": 86, "unit": "%"}, {"measurement": "Activity", "setting": "[10]", "result": "No effect"}, {"measurement": "remaining at 5 min", "setting": "[11]", "result": 79, "unit": "%"}, {"measurement": "remaining at 0.25 h", "setting": "[12]", "result": 100, "unit": "%"}, {"measurement": "remaining at 0.25 h", "setting": "[13]", "result": 98, "unit": "%"}, {"measurement": "remaining at 0.5 h", "setting": "[14]", "result": 91, "unit": "%"}, {"measurement": "remaining at 0.25 h", "setting": "[15]", "result": 97, "unit": "%"}, {"measurement": "Emax", "setting": "[16]", "result": "> 95", "unit": "%"}, {"measurement": "remaining at 1 h", "setting": "[17]", "result": 81, "unit": "%"}, {"measurement": "remaining at 0.5 h", "setting": "[18]", "result": 70, "unit": "%"}, {"measurement": "Activity", "setting": "[19]", "result": "No effect"}, {"measurement": "Activity", "setting": "[20]", "result": "No effect"}, {"measurement": "remaining at 0.25 h", "setting": "[21]", "result": 94, "unit": "%"}, {"measurement": "Activity", "setting": "[22]", "result": "Active"}, {"measurement": "half-life", "setting": "[23]", "result": "> 2", "unit": "h"}, {"measurement": "Emax", "setting": "[24]", "result": "> 90", "unit": "%"}, {"measurement": "remaining at 0.75 h", "setting": "[25]", "result": 93, "unit": "%"}, {"measurement": "remaining at 0.25 h", "setting": "[26]", "result": 111, "unit": "%"}, {"measurement": "Activity", "setting": "[27]", "result": 60, "unit": "%"}, {"measurement": "Activity", "setting": "PBMC", "result": "inactive"}, {"measurement": "remaining at 1 h", "setting": "[28]", "result": 94, "unit": "%"}, {"measurement": "half-life", "setting": "[29]", "result": "> 2", "unit": "h"}]}]}
